Source: patent publication US10209240B2, “Predicting human developmental toxicity of pharmaceuticals using human stem-like cells and metabolomic ratios” (STEMINA BIOMARKER DISCOVERY, INC., priority 2012, dated 2019)

How the values were obtained:
Humans = conditions: cited from earlier work; for Humans (known human developmental toxicity): training and test set; for Known Effect: validation and test set treatments of Example 2
[1] = test system: mouse embryonic stem cell; conditions: training and test set; weak/moderate and strong teratogens both labeled teratogen; cited from earlier work
WA09 hES cells = experiment: Phase 1 untargeted metabolomics of hES cell spent media, single concentration (ornithine, cystine, o/c ratio); type: cell-based, human; conditions: for Cystine abundance relative to the reference treatment / Ornithine abundance relative to the reference treatment: Phase 1, spent media, 72 hours, reference 0.1% DMSO; for Cystine abundance relative to the reference treatment: Cmax exposure (IC30 for hydroxyurea); for Ornithine abundance relative to the reference treatment: Cmax or IC30 exposure
Method: Undifferentiated hES Cell Line Maintenance (Phases 1 and 2).
96-well hES Cell Plating (Phases 1 and 2). […] Compound exposure began 24 hours after plating.
Sample Preparation (Phases 1 and 2).
Phase 1 Mass Spectrometry. LC-HRMS data was acquired for nine biological replications on three separate LC-HRMS systems with three replications evaluated on each system. Each system consisted of an Agilent 1290 Infinity LC system interfaced either with an Agilent G6520A QTOF high resolution mass spectrometer (QTOF HRMS), an Agilent G6530A QTOF HRMS, or an Agilent G6224A TOF HRMS system (Agilent Technologies, Santa Clara, Calif.). To facilitate separation of biological small molecules with a wide range of structures and to allow increased retention of hydrophilic species, Hydrophilic Interaction Liquid Chromatography (HILIC) was utilized. A Luna HILIC column (Phenomenex, Torrance, Calif.) with dimensions 3×100 mm and 3 μm particle size was used and maintained at 30° C. […] Electrospray ionization was employed using a dual ESI source. The scan range of the instrument was 70-1600 Da. Data acquisition was performed with MassHunter Acquisition software (version B 04.00, Agilent Technologies) using high-resolution exact mass conditions and each set of samples was run first under ESI positive polarity then under ESI negative polarity conditions.
Peak Detection (Phases 1 and 2). […] Mass features (peaks) were detected using the centwave algorithm.
Ornithine/Cystine Ratio Calculation.
Teratogenicity Threshold Selection (Phases 1 and 2).
Phase 1 Prediction of Developmental Toxicity Potential. A test compound was classified as a developmental toxicant if the mean of the change in the abundance in the treated sample compared to the reference treatment (DMSO) across the nine experimental replications for either metabolite or the o/c ratio exceeded its respective teratogenicity threshold at the concentration tested. The predictive accuracy (correct prediction), sensitivity (true positive rate), and specificity (true negative rate) were based on scoring the predicted result (teratogen or non-teratogen) against the known human teratogenicity of the compound.

hES cells = experiment: ADMA/cystine ratio simplified predictive model in hES cell spent media; type: cell-based, human; conditions: single dose per treatment; ratios less than 0.9 indicate teratogenicity
Method in brief: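 hES cell spent media were analysed for ADMA and cystine, each normalized to the DMSO reference, and their ratio formed. Each value is the median of independent blocks (6 reps each). A ratio cutoff of 0.9 classifies teratogens versus non-teratogens.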

SMILES | Humans (known human developmental toxicity) (Humans) | Known Effect (Humans) | mEST prediction [1] | Cystine abundance relative to the reference treatment (WA09 hES cells) | Ornithine abundance relative to the reference treatment (WA09 hES cells) | Model Predictions ADMA/Cystine (hES cells) | Classification by o/c ratio in Phase 1 (WA09 hES cells; teratogenicity threshold of a 12% decrease in the o/c ratio, single concentration)
CC1=C(/C=C/C(C)=C/C=C/C(C)=C\C(=O)O)C(C)(C)CCC1 [13-cis Retinoic Acid] | TER | Ter | TER^p | significant increase in abundance | increased | Ter | 
CC1=C(/C=C/C(C)=C/C=C/C(C)=C/C(=O)O)C(C)(C)CCC1 [All-trans Retinoic Acid] | TER | Ter | TER^b,p | significant increase in abundance | increased | Ter | 
NC(=O)N1c2ccccc2C=Cc2ccccc21 [Carbamazepine] | TER | Ter | TER^i | significant increase in abundance |  | Ter | 
O=C1NC(=O)C(c2ccccc2)(c2ccccc2)N1 [Diphenylhydantoin] | TER | Ter | TER^b,i |  |  | Non | misclassifying
O=C1CCC(N2C(=O)c3ccccc3C2=O)C(=O)N1 (centres unmarked) [Thalidomide] | TER | Ter |  | significant increase in abundance |  | Ter | 
